Measurements published in patent US20260207570A1, “OPTIMIZED DOSING OF LERIGLITAZONE” (MINORYX THERAPEUTICS S.L., priority 2022, published 2026).
Like-named read-outs stand apart in the source and are kept apart here.

What was measured:
[1] = Phase 1 single ascending dose (SAD) pharmacokinetics in healthy volunteers; format: in vivo, human; details: for half-life / Tmax / Cmax / AUC(0-t) / AUC: male, human, plasma, oral; for Tmax: read-out: Tmax; for Cmax: plasma total, read-out: Cmax; for AUC(0-t) / AUC: geometric mean; for AUC: read-out: AUC
Procedure: (§1) Study design: A phase 1, randomized, double blind, placebo-controlled, single-center clinical study in 33 male healthy volunteers (HV) (19-54 years, 63.2-95.7 Kg) was conducted with leriglitazone HCl and divided in two parts: a single ascending dose (SAD) with three dose levels (30, 90 and 270 mg) in fasted conditions, followed with two dose levels (90 and 270 mg) in fed conditions; a multiple ascending dose (MAD) with a double-blind, parallel-design with two dose levels (135 and 270 mg) for 8 days and a separate cohort of subjects in an open-label parallel design with two dose levels (135 and 270 mg) including cerebrospinal fluid (CSF) collection on day 8. In the fasted conditions a fasting period of at least 4 hours was required before obtaining plasma samples. The food effect (FE) was assessed by comparing fasted with fed conditions (dosing after a high-fat breakfast per FDA definition with a calculated caloric content of 918 kcal). In the MAD part (fed) the medication was taken before a normal breakfast. Leriglitazone HCl was supplied by ChemConnection and an oral suspension of leriglitazone (20% w/v kleptose, 2% ethanol in 100 mM phosphate buffer pH=7.8) at 6 mg/ml was used in the study.
(§2) Blood, Urine and CSF sampling: In the SAD, blood samples were drawn at the following time points: pre-dose and 0.25, 0.5, 0.75, 1, 1.5, 2, 2.5, 3, 4, 5, 6, 8, 10, 12, 16, 24, 36, 48, 72, 96 and 120 hours post-dose. Urine was collected at pre-dose (within 12 hours prior to dosing) and over 0-6, 6-12, 12-24, 24-36, 36-48 hours post-dose collection intervals. In the MAD, blood samples were collected on day 1 at pre-dose and 0.25, 0.5, 0.75, 1, 1.5, 2, 2.5, 3, 4, 5, 6, 8, 10, 12, and 16 hours post-dose and at pre-dose and at 4 hours post-dose on day 2 to day 7, and on day 8 at pre-dose and 0.25, 0.5, 0.75, 1, 1.5, 2, 2.5, 3, 4, 5, 6, 8, 10, 12, 16, 24, 36, 48, 72, 96 and 120 hours post-dose. CSF were taken on day −1 and on day 8, at 4 hours post-dose.
(§3) Pharmacokinetic parameter calculation: PK parameters (Cmax, Tmax, t1/2, AUC0-t, CL/F, Vz/F, AUC0-t, RAUC, RCmax) were estimated using non-compartmental analysis (NCA) (Phoenix WinNonlin® Version 6.3).
(§4) Statistical analysis: Descriptive statistics for all relevant PK parameters: n, mean, minimum, median, maximum, geometric mean, and coefficient of variation (CV %); analysis of variance on Cmax and AUC to determine dose proportionality and food effect (FE).

[2] = Phase 1 multiple ascending dose (MAD) pharmacokinetics with CSF collection in healthy volunteers; format: in vivo, human; details: for accumulation RCmax: day 8 vs day 1; for Kp at 4 h / concentration at 4 h / Tmax / Vd/F / Cmax: male, human, oral; for Kp at 4 h: CSF and plasma; for Tmax: Median, read-out: Tmax; for Vd/F: read-out: Vz/F; for Cmax: plasma total, geometric mean, read-out: Cmax
Procedure: as §1, §2, §3, §4
The ratio of unbound leriglitazone concentration in brain to unbound concentration in plasma (Kpu,u; Cb,u/Cp,u) was calculated dividing the unbound CSF Cmax by the unbound plasma Cmax. Fractions unbound in plasma (fu,p) to obtain the unbound Cmax values were already reported. Rodriguez-Pascau, L. et al., Sci. Transl. Med. 13, eabc0555 (2021).

[3] = plasma, 135 mg, 135 mg MD Day 1, n = 8
[4] = plasma, 135 mg, 135 mg MD Day 8, n = 8
[5] = plasma, 270 mg, 270 mg MD Day 1, n = 8
[6] = plasma, 270 mg, 270 mg MD Day 8, n = 7

CC(=O)c1ccc(CCOc2ccc(CC3SC(=O)NC3=O)cc2)nc1 (stereo not shown) [Compound M3, 5-[[4-[2-[5-acetylpyridin-2-yl]ethoxy]phenyl]methyl]-1,3-thiazolidine-2,4-dione]
dose excreted in urine as free analyte ([1]; 48-hour collection period): < 0.01% | dose excreted in urine as the analyte, mostly in a conjugated state ([1]; 48-hour collection period): 0.3% | half-life ([1]; 30 mg, M3 section, SAD 30 mg fasted, n = 6, geometric mean (CV %), read-out: t1/2 (converted)): 22.1 h | Tmax ([1]; 30 mg, SAD 30 mg fasted, n = 6, Median): 0.63 h | Cmax ([1]; 30 mg, SAD 30 mg fasted, n = 6, geometric mean (CV %)): 828 ng/mL | half-life ([1]; 90 mg, M3 section, SAD 90 mg fasted, n = 6, geometric mean (CV %), read-out: t1/2 (converted)): 23.2 h | half-life ([1]; 90 mg, M3 section, SAD 90 mg fed, n = 3, geometric mean (CV %), read-out: t1/2 (converted)): 25.7 h | Tmax ([1]; 90 mg, SAD 90 mg fasted, n = 6, Median): 0.63 h | AUC(0-t) ([1]; 90 mg, SAD 90 mg fasted, n = 6): 59400 ng·h/mL | AUC ([1]; 90 mg, SAD 90 mg fasted, n = 6): 61800 ng·h/mL | Cmax ([1]; 90 mg, SAD 90 mg fasted, n = 6, geometric mean (CV %)): 2550 ng/mL | Tmax ([1]; 90 mg, SAD 90 mg fed, n = 3, Median): 5 h | AUC(0-t) ([1]; 90 mg, SAD 90 mg fed, n = 3): 59900 ng·h/mL | AUC ([1]; 90 mg, SAD 90 mg fed, n = 3): 62200 ng·h/mL | Cmax ([1]; 90 mg, SAD 90 mg fed, n = 3, geometric mean (CV %)): 1980 ng/mL | half-life ([1]; 270 mg, M3 section, SAD 270 mg fasted, n = 5, geometric mean (CV %), read-out: t1/2 (converted)): 21.6 h | half-life ([1]; 270 mg, M3 section, SAD 270 mg fed, n = 5, geometric mean (CV %), read-out: t1/2 (converted)): 22.7 h | Tmax ([1]; 270 mg, SAD 270 mg fasted, n = 5, Median): 1.5 h | Tmax ([1]; 270 mg, SAD 270 mg fed, n = 5, Median): 4 h | AUC(0-t) ([1]; 270 mg, SAD 270 mg fed, n = 5): 155000 ng·h/mL | AUC ([1]; 270 mg, SAD 270 mg fed, n = 5): 159000 ng·h/mL | Cmax ([1]; 270 mg, SAD 270 mg fed, n = 5, geometric mean (CV %)): 5320 ng/mL | Tmax ([1]; 270 mg, SAD fed conditions, 90 and 270 mg): 3 to 6 h | half-life ([1]; SAD, read-out: Half-lives): 22 to 23 h | CL/F ([2]; 135 mg MD Day 1, n = 8, geometric mean (CV %)): 3.69 (29.4) L./h | CL/F ([2]; 135 mg MD Day 8, n = 8, geometric mean (CV %)): 2.15 (27.6) L./h | CL/F ([2]; 270 mg MD Day 1, n = 8, geometric mean (CV %)): 3.29 (26.4) L./h | Plasma C4h ([2]; 270 mg MD Day 8, 4 hours post-dose, total, geometric mean (CV %)): :5673 (34.2) ng/mL | CL/F ([2]; 270 mg MD Day 8, n = 7, geometric mean (CV %)): 2.13 (25.9) L./h | increase of CSF concentration on doubling the dose ([2]; 270 mg vs 135 mg, day 8, 4 hours post-dose): 1.7 fold | accumulation RCmax ([2]; MAD 135 mg): 1.57 | accumulation RAUC ([2]; MAD 270 mg dose): 1.63 | accumulation RCmax ([2]; MAD 270 mg): 1.69 | brain penetration ([2]; judged from CSF to plasma concentrations): limited | Kp at 4 h ([2]; 135 mg MD Day 8, geometric mean (CV %), read-out: CSF/Plasma): 0.004 | Kp at 4 h ([2]; 270 mg MD Day 8, geometric mean (CV %), read-out: CSF/Plasma): 0.004 | Kp at 4 h ([2]; day 8, 4 hours post-dose, read-out: total concentrations in CSF as share of total plasma concentrations): 0.004 | concentration at 4 h ([2]; CSF, 135 mg MD Day 8, 4 hours post-dose, total, geometric mean (CV %), read-out: CSF C4h): 13 ng/mL | concentration at 4 h ([2]; CSF, 270 mg MD Day 8, 4 hours post-dose, total, geometric mean (CV %), read-out: CSF C4h): 22 ng/mL | Tmax [2, 3]: 3.5 h | Vd/F ([2]; plasma, 135 mg, 135 mg MD Day 1, n = 8, geometric mean (CV %)): 111 L | Cmax [2, 3]: 2470 ng/mL | Tmax [2, 4]: 2.75 h | Vd/F ([2]; plasma, 135 mg, 135 mg MD Day 8, n = 8, geometric mean (CV %)): 63.5 L | Cmax [2, 4]: 4150 ng/mL | Tmax [2, 5]: 3.5 h | Vd/F ([2]; plasma, 270 mg, 270 mg MD Day 1, n = 8, geometric mean (CV %)): 103 L | Cmax [2, 5]: 5360 ng/mL | Tmax [2, 6]: 2.5 h | Vd/F ([2]; plasma, 270 mg, 270 mg MD Day 8, n = 7, geometric mean (CV %)): 69.3 L | Cmax [2, 6]: 8030 ng/mL | concentration at 4 h ([2]; plasma, 135 mg MD Day 8, 4 hours post-dose, total, geometric mean (CV %), read-out: Plasma C4h): 3600 ng/mL
